± gives the uncertainty stated by the source.
Assay: xn = mol fraction of the nth substance listed

CCCC[N+](CCCC)(CCCC)CCCC.[OH-] + CS(C)=O
viscosity [mPa·s], 100 kPa
Settings | 298.15 K | 303.15 K | 308.15 K | 313.15 K
x1 = 0.0159 | 2.19 ± 0.05 | 2.01 ± 0.05 | 1.87 ± 0.04 | 1.77 ± 0.04
x1 = 0.0368 | 2.43 ± 0.05 | 2.31 ± 0.05 | 2.19 ± 0.05 | 2.12 ± 0.05
x1 = 0.0632 | 2.72 ± 0.06 | 2.58 ± 0.06 | 2.47 ± 0.05 | 2.38 ± 0.05
x1 = 0.0911 | 3.02 ± 0.06 | 2.88 ± 0.06 | 2.77 ± 0.06 | 2.7 ± 0.06
x1 = 0.1206 | 3.32 ± 0.07 | 3.18 ± 0.07 | 3.08 ± 0.07 | 3 ± 0.06
x1 = 0.1519 | 3.65 ± 0.08 | 3.5 ± 0.07 | 3.4 ± 0.07 | 3.33 ± 0.07
x1 = 0.2183 | 4.25 ± 0.09 | 4.13 ± 0.09 | 4.07 ± 0.09 | 4.02 ± 0.09
x1 = 0.2907 | 4.86 ± 0.1 | 4.75 ± 0.1 | 4.69 ± 0.1 | 4.65 ± 0.1
x1 = 0.3787 | 5.51 ± 0.12 | 5.38 ± 0.11 | 5.33 ± 0.11 | 5.29 ± 0.11
x1 = 0.4429 | 5.92 ± 0.12 | 5.79 ± 0.12 | 5.73 ± 0.12 | 5.69 ± 0.12
x1 = 0.5298 | 6.4 ± 0.13 | 6.26 ± 0.13 | 6.17 ± 0.13 | 6.13 ± 0.13
x1 = 0.6052 | 6.71 ± 0.14 | 6.56 ± 0.14 | 6.45 ± 0.14 | 6.42 ± 0.14
x1 = 0.6947 | 6.97 ± 0.15 | 6.82 ± 0.14 | 6.67 ± 0.14 | 6.62 ± 0.14
x1 = 0.7486 | 7.03 ± 0.15 | 6.88 ± 0.14 | 6.74 ± 0.14 | 6.7 ± 0.14
x1 = 0.8273 | 7.07 ± 0.15 | 6.93 ± 0.15 | 6.77 ± 0.14 | 6.7 ± 0.14
x1 = 0.8964 | 7 ± 0.15 | 6.85 ± 0.14 | 6.69 ± 0.14 | 6.54 ± 0.14
x1 = 0.9481 | 6.86 ± 0.14 | 6.7 ± 0.14 | 6.53 ± 0.14 | 6.42 ± 0.14
x1 = 0.9765 | 6.76 ± 0.14 | 6.61 ± 0.14 | 6.42 ± 0.14 | 6.32 ± 0.13

CC(Cl)(Cl)Cl + C[N+](=O)[O-]
298.15 K, 101.33 kPa
Settings | viscosity [mPa·s]
x1 = 0.101 | 0.6114 ± 0.0062
x1 = 0.201 | 0.6128 ± 0.0062
x1 = 0.251 | 0.6165 ± 0.0062
x1 = 0.301 | 0.622 ± 0.0063
x1 = 0.351 | 0.6284 ± 0.0063
x1 = 0.4 | 0.6356 ± 0.0064
x1 = 0.451 | 0.6435 ± 0.0065
x1 = 0.5 | 0.6518 ± 0.0065
x1 = 0.55 | 0.6607 ± 0.0066
x1 = 0.551 | 0.6609 ± 0.0066
x1 = 0.6 | 0.6702 ± 0.0067
x1 = 0.65 | 0.6803 ± 0.0068
x1 = 0.651 | 0.6805 ± 0.0068
x1 = 0.7 | 0.6912 ± 0.0069
x1 = 0.749 | 0.703 ± 0.007
x1 = 0.812 | 0.7202 ± 0.0071
x1 = 0.867 | 0.7375 ± 0.0073

O=C(O)CC(O)(CC(=O)O)C(=O)O + C[N+](C)(C)CCO.[Cl-]
viscosity [mPa·s], x2 = 0.5
Settings | 298 K | 303 K | 313 K | 323 K
101 kPa | – | 2085000 ± 590000 | 510000 ± 120000 | –
101.3 kPa | 14480 ± 1200 | – | – | 2242 ± 140

O=C(O)CC(O)(CC(=O)O)C(=O)O + C[N+](C)(C)Cc1ccccc1.[Cl-]
Settings | viscosity [mPa·s]
323.1 K, 101 kPa, x2 = 0.5 | 88750 ± 12000

CCCCCBr + Cc1cc(C)cc(C)c1
308.15 K, 101 kPa
Settings | viscosity [mPa·s]
x2 = 0.1098 | 0.6376 ± 0.0053
x2 = 0.2005 | 0.6292 ± 0.0052
x2 = 0.2983 | 0.6179 ± 0.0051
x2 = 0.4035 | 0.6093 ± 0.0051
x2 = 0.4979 | 0.6042 ± 0.005
x2 = 0.6027 | 0.5945 ± 0.005
x2 = 0.802 | 0.5739 ± 0.0048
x2 = 0.8481 | 0.5719 ± 0.0048
x2 = 0.9023 | 0.5699 ± 0.0048

CC(Cl)(Cl)Cl + Cc1ccc(C)cc1
303.15 K, 101 kPa
Settings | viscosity [mPa·s]
x1 = 0.1341 | 0.6079 ± 0.016
x1 = 0.2166 | 0.632 ± 0.016
x1 = 0.3072 | 0.6566 ± 0.017
x1 = 0.4291 | 0.6846 ± 0.018
x1 = 0.5112 | 0.6988 ± 0.018
x1 = 0.6202 | 0.7113 ± 0.018
x1 = 0.69 | 0.7164 ± 0.018
x1 = 0.7824 | 0.7206 ± 0.019
x1 = 0.8403 | 0.7216 ± 0.019
x1 = 0.9044 | 0.7226 ± 0.019

CCCCCBr + Cc1ccc(C)cc1
308.15 K, 101 kPa
Settings | viscosity [mPa·s]
x2 = 0.1026 | 0.6316 ± 0.0052
x2 = 0.1991 | 0.6138 ± 0.0051
x2 = 0.304 | 0.5958 ± 0.005
x2 = 0.4033 | 0.5803 ± 0.0049
x2 = 0.503 | 0.5655 ± 0.0048
x2 = 0.6052 | 0.5526 ± 0.0047
x2 = 0.7021 | 0.5436 ± 0.0046
x2 = 0.8 | 0.5318 ± 0.0045
x2 = 0.9034 | 0.5238 ± 0.0045

CC(Cl)(Cl)Cl + Cc1ccccc1
303.15 K, 101 kPa
Settings | viscosity [mPa·s]
x1 = 0.1635 | 0.5716 ± 0.015
x1 = 0.2871 | 0.6046 ± 0.016
x1 = 0.3684 | 0.6248 ± 0.016
x1 = 0.4152 | 0.6363 ± 0.016
x1 = 0.4825 | 0.6505 ± 0.017
x1 = 0.5694 | 0.6666 ± 0.017
x1 = 0.6729 | 0.6834 ± 0.018
x1 = 0.763 | 0.6958 ± 0.018
x1 = 0.8412 | 0.7049 ± 0.018
x1 = 0.9286 | 0.7156 ± 0.018

CCCCCBr + ClC(Cl)(Cl)Cl
viscosity [mPa·s], 101 kPa
Settings | 293.15 K | 303.15 K | 313.15 K | 323.15 K
x1 = 0.13 | 0.925 ± 0.02 | 0.81 ± 0.017 | 0.712 ± 0.015 | 0.633 ± 0.014
x1 = 0.273 | 0.887 ± 0.019 | 0.78 ± 0.017 | 0.692 ± 0.015 | 0.62 ± 0.013
x1 = 0.429 | 0.863 ± 0.019 | 0.76 ± 0.016 | 0.675 ± 0.015 | 0.602 ± 0.013
x1 = 0.601 | 0.841 ± 0.018 | 0.742 ± 0.016 | 0.66 ± 0.014 | 0.592 ± 0.013

O=[N+]([O-])[O-].O=[N+]([O-])[O-].[Ba+2] + N
293.15 K, 101 kPa
Settings | viscosity [mPa·s]
x1 = 0.06 | 0.171 ± 0.004
x1 = 0.13 | 0.24 ± 0.006
x1 = 0.28 | 0.366 ± 0.009
x1 = 0.58 | 0.81 ± 0.02

O=CO + NC=O
viscosity [mPa·s]
Settings | 298.15 K | 303.15 K | 308.15 K | 313.15 K
101 kPa, x2 = 0.1 | 1.946 ± 0.059 | – | – | 1.429 ± 0.034
101 kPa, x2 = 0.2005 | 2.316 ± 0.079 | – | – | 1.685 ± 0.047
101 kPa, x2 = 0.3015 | 2.557 ± 0.093 | – | – | 1.849 ± 0.055
101 kPa, x2 = 0.4 | 2.85 ± 0.11 | – | – | 2.065 ± 0.066
101 kPa, x2 = 0.5002 | 3.057 ± 0.12 | – | – | 2.23 ± 0.075
101 kPa, x2 = 0.6001 | 3.196 ± 0.13 | – | – | 2.31 ± 0.079
101 kPa, x2 = 0.7 | 3.286 ± 0.14 | – | – | 2.342 ± 0.081
101 kPa, x2 = 0.8001 | 3.314 ± 0.14 | – | – | 2.355 ± 0.082
101 kPa, x2 = 0.9 | 3.341 ± 0.14 | – | – | 2.368 ± 0.083
101.33 kPa, x2 = 0.0748 | 1.77 ± 0.09 | 1.58 ± 0.08 | 1.45 ± 0.07 | 1.33 ± 0.07
101.33 kPa, x2 = 0.1535 | 2.01 ± 0.1 | 1.79 ± 0.09 | 1.65 ± 0.08 | 1.52 ± 0.08
101.33 kPa, x2 = 0.2286 | 2.25 ± 0.11 | 2 ± 0.1 | 1.83 ± 0.09 | 1.68 ± 0.08
101.33 kPa, x2 = 0.3078 | 2.5 ± 0.13 | 2.21 ± 0.11 | 2.02 ± 0.1 | 1.84 ± 0.09
101.33 kPa, x2 = 0.3891 | 2.81 ± 0.14 | 2.47 ± 0.12 | 2.26 ± 0.11 | 2.07 ± 0.1
101.33 kPa, x2 = 0.4554 | 2.86 ± 0.14 | 2.52 ± 0.13 | 2.3 ± 0.12 | 2.1 ± 0.11
101.33 kPa, x2 = 0.5248 | 2.98 ± 0.15 | 2.62 ± 0.13 | 2.39 ± 0.12 | 2.18 ± 0.11
101.33 kPa, x2 = 0.6239 | 3.06 ± 0.15 | 2.69 ± 0.14 | 2.46 ± 0.12 | 2.24 ± 0.11
101.33 kPa, x2 = 0.6923 | 3.09 ± 0.16 | 2.72 ± 0.14 | 2.48 ± 0.12 | 2.25 ± 0.11
101.33 kPa, x2 = 0.7982 | 3.13 ± 0.16 | 2.74 ± 0.14 | 2.49 ± 0.13 | 2.26 ± 0.11
101.33 kPa, x2 = 0.8449 | 3.12 ± 0.16 | 2.73 ± 0.14 | 2.48 ± 0.12 | 2.26 ± 0.11
101.33 kPa, x2 = 0.9202 | 3.11 ± 0.16 | 2.72 ± 0.14 | 2.47 ± 0.12 | 2.25 ± 0.11

Reference: the CheMixHub viscosity set
